The text below walks through data of patent US11578055B2, “Triazacyclododecansulfonamide (“TCD”)-based protein secretion inhibitors” (KEZAR LIFE SCIENCES, priority 2018, dated 2023).

Where a name gives a salt, the structure may show the parent alone.

In general, EC50 refers to the midpoint of the concentration-response curve.

The nature of data set [1]: In Vitro Microsome Stability Assay (human). The format is in vitro ADME. To be noted: human, 30 min, NADPH. The essentials: (§1)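 The value reported is the percentage of parent left after 30 min, calculated from analyte/IS peak-area ratios relative to time zero by LC-MS/MS. Incubations ran at 37° C in 0.1 M potassium phosphate with NADPH and microsomes (stock 20 mg/mL), with compound added from a 0.25 mM DMSO stock. Acetonitrile containing IS stopped the reactions.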

The test system of data set [2] is PD1 signal sequence plus 10 amino acids fused to Gaussia Luciferase (PD1-ss+10aa/Gaussia Luciferase). Put plainly: Dox Induced PD1-ss-Gluc Assay. To be noted: 24 hr, 293FRT/TO; read-out: 24 hr Dox Inducible PD1ssGluc 293FRT/TO: Mean IC50. The format is cell-based. A digest of the protocol:
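Stable Flp-In 293 T-REx line expressing the fusion under tetracycline-inducible control, plated the day before assay. Compound dilutions added with doxycycline and incubated at 37 °C, 5% CO2; unspecified stereocentres mean data refer to stereoisomer mixtures.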

A short description of data set [3]: In Vitro Microsome Stability Assay (monkey). The format is in vitro ADME. The conditions noted are these: monkey, 30 min, NADPH. A digest of the protocol:
as §1

Data set [4] is described as follows: In Vitro Microsome Stability Assay (mouse). Format: in vitro ADME. The conditions noted are these: mouse, 30 min, NADPH. The essentials:
as §1

Data set [5] in a line: In Vitro Microsome Stability Assay (rat). Format: in vitro ADME. The conditions noted are these: rat, 30 min, NADPH. A digest of the protocol:
as §1

The subject of data set [6] is multiple myeloma cell line U266B1. In words: U266 Cell Viability Assay. The format is cell-based, human. The conditions noted are these: Homo sapiens, U-266; 48 hr, U266; read-out: 48 hr U266 Viability Celltiter-Glo: Mean EC50. A digest of the protocol:
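U266B1 myeloma cells in RPMI 1640 with 10% FBS were treated with compound dilutions for 48 h at 37° C, 5% CO2. Viability was read as CellTiter-Glo luminescence. Data for structures drawn without stereochemistry refer to stereoisomer mixtures.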
In general terms: ATP-based viability assays read luminescence as a measure of living cells.

Data set [7] concerns multiple myeloma cell line NCl-H929. In words: H929 Cell Viability Assay. The format is cell-based, human. The conditions noted are these: Homo sapiens, NCI-H929, 48 h, H929, read-out: 48 hr H929 Viability Celltiter-Glo: Mean EC50. The essentials:
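NCI-H929 myeloma cells in RPMI 1640 with 10% FBS were treated with compound dilutions for 48 h at 37 °C, and viability was then read by CellTiter-Glo luminescence. Compounds drawn without stereochemistry were tested as stereoisomer mixtures.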

Data set [8] deals with full length TNFα (amino acids 1-233) fused to Gaussia Luciferase. In words: Dox Induced TNFα-FL-Gluc Assay. The conditions noted are these: 24 hr, 293FRT/TO; read-out: 24 hr Dox Inducible TNFaFLGluc 293FRT/TO: Mean IC50. Format: cell-based. The essentials: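 Stable Flp-In 293 T-REx line expressing doxycycline-inducible full-length TNFα fused to Gaussia luciferase; cells plated the day before, then treated with compound dilutions in doxycycline-containing medium at 37° C, 5% CO2. Unspecified stereocentres mean stereoisomer mixtures were tested.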

For the compound `C=C1CN(S(=O)(=O)c2ccc(N(C)C)cc2)CCCN(CC2CCCCC2)CCCN(S(=O)(=O)N2CC=C(C3=CCCCC3)CC2)C1` [A68, 4-[(5-{[4-(cyclohex-1-en-1-yl)-1,2,3,6-tetrahydropyridin-1-yl]sulfonyl}-9-(cyclohexylmethyl)-3-methylidene-1,5,9-triazacyclododecan-1-yl)sulfonyl}-N,N-dimethylaniline], the “Liver Microsome Stability-% Left after 30 min w/ NADPH (%) Human” value (from here on “Liver Microsome Stability-% Left … (%) Human”) in data set [1] turned out to be 50.5%. Also, the results for the IC50 in data set [2] and in data set [8] were 0.156 µM and 6.44 µM, respectively. Moreover, in data set [3], the “Liver Microsome Stability-% Left after 30 min w/ NADPH (%) Monkey” value (shortened to “Liver Microsome Stability-% Left … (%) Monkey”) is on record as 57.1%. The “Liver Microsome Stability-% Left after 30 min w/ NADPH (%) Mouse” value (“Liver Microsome Stability-% Left … (%) Mouse” for short) in data set [4] stood at 55.1%. Besides, the “Liver Microsome Stability-% Left after 30 min w/ NADPH (%) Rat” value (shortened to “Liver Microsome Stability-% Left … (%) Rat”) in data set [5] was 57.1%. Moreover, the EC50 in data set [6] and in data set [7] was more than 25 µM in each case.

As for `C=C1CN(S(=O)(=O)c2ccc(N(C)C)cc2)CCCN(CC2CCCCC2)CCCN(S(=O)(=O)N2CCc3cc(C#N)ccc3C2)C1` [A70, 2-{[9-(cyclohexylmethyl)-5-[4-(dimethylamino)benzenesulfonyl]-3-methylidene-1,5,9-triazacyclododecan-1-yl]sulfonyl}-1,2,3,4-tetrahydroisoquinoline-6-carbonitrile], the “Liver Microsome Stability-% Left … (%) Human” value in data set [1] is given as 1.36%. The IC50 came to 0.0461 µM in data set [2] and 1.3 µM in data set [8]. Moreover, the “Liver Microsome Stability-% Left … (%) Monkey” value in data set [3] was 3.26%. The “Liver Microsome Stability-% Left … (%) Mouse” value in data set [4] is 3.14%. The “Liver Microsome Stability-% Left … (%) Rat” value in data set [5] is given as 6.75%. For the same compound, the concentration for a half-maximal effect (EC50) in data set [6] was more than 25 µM; in data set [7], 3.02 µM.

With `C=C1CN(S(=O)(=O)c2ccc(N(C)C)cc2)CCCN(CC2CCCCC2)CCCN(S(=O)(=O)N2CCC(c3ccc(Cl)cc3)CC2)C1` [A72, 4-[(5-{[4-(4-chlorophenyl)piperidin-1-yl]sulfonyl}-9-(cyclohexylmethyl)-3-methylidene-1,5,9-triazacyclododecan-1-yl)sulfonyl]-N,N-dimethylaniline], the “Liver Microsome Stability-% Left … (%) Human” value in data set [1] is given as 62.5%. Besides, the IC50 worked out at 0.0962 µM in data set [2] and 6.97 µM in data set [8]. For the same compound, the “Liver Microsome Stability-% Left … (%) Monkey” value in data set [3] is 53.2%. Also, the “Liver Microsome Stability-% Left … (%) Mouse” value in data set [4] was determined as 43.3%. Further, in data set [5], the “Liver Microsome Stability-% Left … (%) Rat” value stood at 54.6%. For the same compound, the EC50 in data set [6] was more than 25 µM; in data set [7] it was 10.3 µM.

With `C=C1CN(S(=O)(=O)c2ccc(C)cc2)CCCN(CC2CCC(C)(C)CC2)CCCN(S(=O)(=O)c2ccc(N(C)C)cc2)C1` [A10, 4-((9-((4,4-dimethylcyclohexyl)methyl)-3-methylene-5-tosyl-1,5,9-triazacyclododecan-1-yl)sulfonyl)-N,N-dimethylaniline hydrochloride], the “Liver Microsome Stability-% Left … (%) Human” value in data set [1] turned out to be 0.77%. Moreover, the IC50 came to 0.123 µM in data set [2] and 4.69 µM in data set [8]. In addition, the “Liver Microsome Stability-% Left … (%) Monkey” value in data set [3] was determined as 0.14%. In addition, in data set [4], the “Liver Microsome Stability-% Left … (%) Mouse” value was found to be 0.2%. Also, the “Liver Microsome Stability-% Left … (%) Rat” value in data set [5] stood at 8.85%. In addition, the EC50 was more than 25 µM in data set [6] and 2.86 µM in data set [7].

For the compound `Cc1cc(N(C)C)ccc1S(=O)(=O)N1CCCN(CC2CCCCC2)CCCN(S(=O)(=O)N2CCCCC2)CC2(CC2)C1` [A30, 4-{[9-(cyclohexylmethyl)-13-(piperidine-1-sulfonyl)-5,9,13-triazaspiro[2.11]tetradecan-5-yl]sulfonyl}-N,N,3-trimethylaniline], the “Liver Microsome Stability-% Left … (%) Human” value in data set [1] was 0.12%. The values for the IC50 in data set [2] and in data set [8] were 0.793 µM and more than 25 µM, respectively. Moreover, the “Liver Microsome Stability-% Left … (%) Monkey” value in data set [3] is on record as 0.03%. In addition, the “Liver Microsome Stability-% Left … (%) Mouse” value in data set [4] was determined as 0.35%. In addition, in data set [5], the “Liver Microsome Stability-% Left … (%) Rat” value is listed as 0.28%. Also, the EC50 in data set [6] and in data set [7] was more than 25 µM in each case.
